Laboratory results: patent publication US7029680B1, “Delivery of immunogenic molecules vis HBsAg particles” (Yissum Research Development Company of the Hebrew …, priority 1998, dated 2006)

B1: IL-12 alone: cytokine IL-12 without HBsAg (control) (protein, UniProt P29459 23-219; P29460 23-328, looked up)
Interleukin-12 subunit alpha: RNLPVATPDPGMFPCLHHSQNLLRAVSNMLQKARQTLEFYPCTSEEIDHEDITKDKTSTVEACLPLELTKNESCLNSRETSFITNGSCLASRKTSFMMALCLSSIYEDLKMYQVEFKTMNAKLLMDPKRQIFLDQNMLAVIDELMQALNFNSETVPQKSSLEEPDFYKTKIKLCILLHAFRIRAVTIDRVMSYLNAS
Interleukin-12 subunit beta: IWELKKDVYVVELDWYPDAPGEMVVLTCDTPEEDGITWTLDQSSEVLGSGKTLTIQVKEFGDAGQYTCHKGGEVLSHSLLLLHKKEDGIWSTDILKDQKEPKNKTFLRCEAKNYSGRFTCWWLTTISTDLTFSVKSSRGSSDPQGVTCGAATLSAERVRGDNKEYEYSVECQEDSACPAAEESLPIEVMVDAVHKLKYENYTSSFFIRDIIKPDPPKNLQLKPLKNSRQVEVSWEYPDTWSTPHSYFSLTFCVQVQGKSKREKKDRVFTDKTSATVICRKNASISVRAQDRYYSSSWSEWASVPCS

How the values were obtained:
[1] = test system: OVA-specific cells (EG7); assay: Anti-OVA CTL response, 51Cr release cytolytic assay after immunization; type: in vivo; settings: F1 (H-2d/b) mice; lysis of EG7 vs EL4; FIG. 4B
Description: (§1) OVA/HBsAg particles, prepared as described above, were isolated, washed, and adjusted to the appropriate concentration for immunization. The following compositions were injected into F1 (H-2d/b) mice, each in 50 μl PBS (phosphate buffered saline): (a) 1 μg HBsAg particles (without adjuvants); (b) 100 μg native OVA; and (c) 1 μg HBsAg/OVA, as described in Section A above.
(§2) For evaluation of the CTL response, spleen or lymph nodes cells, obtained from immunized mice seven days to five weeks post-vaccination, were specifically restimulated in vitro for five days with syngeneic, irradiated OVA- or HBsAg-peptide-pulsed tumor cells. (The latter cells had been incubated in vitro with the recombinant HBsAg particles for 2 hours at 37° C.) The cells were harvested and tested in a 4-hour ^51Cr release cytolytic assay against antigen-bearing and non-antigen-bearing syngeneic targets. Lysis of cells specific for the HBsAg S protein (P815/S), or for OVA (EG7), was compared to that for nonspecific cells (P815 or EL4, respectively). The EG7 cells are EL4 cells which have been stably transfected with an expression plasmid encoding OVA.

[2] = test system: OVA; assay: Anti-OVA humoral (serum antibody) response after immunization; type: in vivo; settings: F1 (H-2d/b) mice, FIG. 4D
Description: as §1, §2

[3] = test system: EL4 cells which had been pulsed with HBsAg; assay: Anti-HBsAg CTL response in 'nonresponder' mice, 51Cr release assay; type: in vivo, 'nonresponder' mice (H-2^b C57BL/6); settings: nonresponder C57BL/6 mice; splenocytes restimulated with HBsAg-pulsed RBL5 cells; FIG. 6A-G
Description: To produce the data shown in FIG. 6, several cytokines were loaded into HBsAg particles, following a protocol such as outlined above for OVA, with incubation carried out at 45° C. It was estimated that approximately 10 ng of cytokine was incorporated per μg of HBsAg particles (about 1% incorporation) at this temperature. Groups of ‘nonresponder’ mice (H-2^b C57BL/6) were immunized with HBsAg particles, with and without incorporated cytokines, or with cytokine alone (FIG. 6G), in the amounts shown below: • A: 1 μg ‘naked’ HBsAg particles • B–F: 1 μg HBsAg/cytokine, where the cytokine was: • (b) IL-12, (c) IFN-γ, (d) IL-2, (e) IL-4, • (f) IL-1 β peptide • G: 1 μg IL-12 (control) • H: 1 μg HBsAg/IL-12
After 12 days, splenocytes from the immunized mice were restimulated in vitro for 5 days with HBsAg-pulsed, syngeneic irradiated RBL5 lymphoma cells. For control experiment H, the splenocytes were restimulated with non-pulsed, syngeneic RBL5 cells. The splenocytes (effector cells) were then cocultured with ^51Cr-labeled target cells, and the CTL response was measured by a standard ^51Cr release assay. The target cells were either non-pulsed EL4 cells (open circles in FIGS. 6A–G), or EL4 cells which had been pulsed with HBsAg (solid circles).

Molecule | anti-OVA CTL response [1] | anti-OVA humoral response [2] | anti-HBsAg CTL response [3]
ovalbumin [OVA alone, native ovalbumin protein, model antigen] | no CTL response and none | elicited a humoral response | –
B1 | – | – | no CTL response
